Data on 5 molecules can be found in patent US10736923B2, “Methods and compositions for generating chondrocyte lineage cells and/or cartilage like tissue” (UNIVERSITY HEALTH NETWORK, priority 2013, dated 2020).

Holding throughout (type): cell-based, human
Experiment [1] deals with hPSC-derived paraxial mesoderm. Nature of the experiment: Chondrocyte specification in micromass culture with TGFB3 or BMP4 (histology, scatter flow cytometry, qRT-PCR, immunostaining). To be noted: for CILP2 expression / COL2A1 expression / PRG4 (lubricin) expression: 12 weeks of micromass culture, TGF agonist 10 ng/ml. The text has this:
FIG. 4. TGFB3 and BMP4 specify chondrocytes and cartilage-like tissues with articular cartilage and growth plate cartilage phenotypes. (A) Micrographs of 5 week old micromasses derived with TGFB3 or BMP4, 20× magnification. (B) Tissue histology (stained with toluidine blue) of 13 week cartilage tissues derived with TGFB3 or BMP4. […] (C) Flow cytometric analysis of forward and side cell scatter parameters of 3 week and 5 week old micromasses. Side scatter indicates cell granularity and forward cell scatter indicates cell size. (D) Comparison of hPSC-derived micromass tissues to fetal primary chondrocyte derived micromass tissues and the developing human fetal femur cartilage. Articular cartilage regions appear to have smaller cells in size compared to growth plate like regions, which contain cells which appear enlarged (hypertrophic). Cartilage tissues in micromass as well as in the fetal femur stain uniformly with the toluidine blue stain (images are pink/purple in color and indicate the presence of cartilage proteins). The BMP4-treated micromass tissues contain a large number of enlarged cells which is similar to the bottom panel of the fetal cartilage which represents a growth plate cartilage. TGFB3 treated micromass cultures contain fewer, if any, enlarged chondrocytes, and appear similar to the upper panel of the fetal cartilage which is the site of articular cartilage. (E) Micrograph using GDF5 instead of BMP4 to generate hypertrophic chondrocytes. (F) Histological analyses of cartilage tissues derived from hiPSCs stained with Toluidine blue after 12 weeks. (G,H) Immunohistochemical staining of hESC-derived cartilage tissues for type II Collagen (G, 8 week tissues), and lubricin (H, 12 week tissues).
FIG. 5. Gene expression analyses of chondrocyte specification in the presence of TGFB3 or BMP4 during stages 3 and 4 of differentiation respectively. General chondrocyte genes Sox9 (A) and collagen 2 (B), hypertrophic genes collagen 10 (C), Runx2 (D), osterix (E) and alkaline phosphatase (F), articular cartilage associated genes lubricin (G) and cartilage intermediate layer protein 2 (CILP2) (H), interzone-related (joint progenitor) genes GDF5 (I), ERG (J) and Wnt9a (K). Expression is copy number relative to TBP (n=3 to 8 biological replicates) and is compared to primary fetal chondrocytes (aged 16 to 19 weeks, n=4), primary healthy adult articular chondrocytes (n=2), and growth plate-like chondrocytes isolated from the iliac crest of an adult (n=1). T15 Mesoderm indicates day 15 hESC-derived paraxial mesoderm (DM+FGF-treated). Error bars indicate s.e.m.
FIG. 8. TGFβ1, TGFβ2, and TGFβ3 generated articular chondrocytes from hPSC-derived paraxial mesoderm. COL2A1, lubricin, and CILP2 gene expression after 12 weeks of micromass culture in the presence of TGF agonists as indicated (10 ng/ml). Values represent copy number mRNA relative to TBP. Error bars indicate s.e.m.
Previous studies have shown that TGFBeta/BMP signaling is required to generate chondrocyte progenitors from paraxial mesoderm. […] Following 10 days of TGFb3 treatment (day 25 total), cultures could be switched to media containing BMP4 or maintained in TGFb3 (stage 4) in order to specify subsets of chondrocytes (articular/non-hypertrophic or growth plate/hypertrophic). To determine the chondrocyte potential of the day 15 mesoderm populations, the cells were plated at high cell density in a 20 microliter volume on tissue culture treated Petri dishes for an hour (micromass) and then the ‘spot’ was submerged/covered with media. In our initial studies, the cells were ‘spotted’ in a media containing 2% fetal bovine serum. However, this short serum exposure can be omitted with no effects on cartilage formation at later stages, making this protocol optionally serum-free. After 2 to 3 days, serum-free media containing TGFb3 is added to the culture to generate chondrocyte progenitors. […]
(Flow cytometry measures light scatter and fluorescence of single cells or particles in a stream.)

Experiment [2] relates to hPSC-derived articular chondrocytes. Nature of the experiment: Response of hPSC-derived articular-like cartilage to IL1β. On the procedure:
FIG. 9. hPSC-derived articular-like cartilage respond appropriately to the pro-inflammatory molecule IL1β. (A) The experimental plan is depicted. Articular cartilage tissues were derived from hPSCs for 10 weeks in the presence of TGFβ3. Cartilage tissues (micromasses) were treated for two weeks (from week 10-12) with TGFβ3 or IL1β (10 ng/ml), as indicated. […] Values represent copy number mRNA relative to TBP (n=7). Error bars indicate s.e.m. (K) Histological analysis of 12-week tissues after treatments as indicated. Metachromatic toluidine blue staining indicates proteoglycans.
Access to an unlimited supply of hPSC-derived articular-like cartilage provides an opportunity to establish platforms to analyze the effects of pro-inflammatory cytokines such as […] (IL1beta), known to play a role in the early stages of osteoarthritis (OA). […] These enzymes cleave proteins found in cartilage extracellular matrix (ECM), such as collagens and aggrecans, which leads to the degradation of cartilage tissue. Significant upregulation of MMP13 and ADAMTS4 was observed only in the absence of TGFbeta3. ADAMTS5 was induced with or without TGFbeta3 present.

Experiment [3] deals with primitive streak-like mesoderm population. As to the kind of experiment: Paraxial mesoderm specification in monolayer culture, flow cytometry of cell surface markers. Conditions: day 4 to day 6 with Dorsomorphin, bFGF, SB431542; read on day 15. On the procedure: FIG. 2. Characterization of paraxial mesoderm derived from hPSCs. Flow cytometric analysis of day 5 mesoderm treated with no additional factors (0 DM, no FGF), FGF, 4 μM DM, or 4 μM DM+FGF. Day 5 profiles depict KDR and PDGFRa expression, a double-positive population (gated) indicates mesoderm that has cardiac potential (20). Treatment with FGF results in less PDGFRa expression on day 5. (B) Expression of cell surface markers CD73, CD105, and PDGFR-beta on mesoderm populations on day 15 of differentiation. […] Experimental cell treatments during day 4 to day 6 include the combination of Dorsomorphin, bFGF, TGFbeta inhibitor (SB431542) in the presence or absence of the wnt pathway inhibitor IWP2. Flow cytometric analyses of CD73 and CD105, on day 15 mesoderm populations derived as indicated. (D) Gene expression analyses of day 15 mesoderm populations derived in indicated factors. Nkx2.5 is a cardiac transcription factor, Meox1 and Nkx3.2 are paraxial mesoderm and somite transcription factors. (E) Micrographs depicting 1 day old micromasses and 1 week old micromasses derived from day 15 mesoderm populations as indicated. (F) Flow cytometric analysis of cardiac troponin T (cTnT) expression in 1 week old micromasses derived from day 15 mesoderms as indicated. […] To generate chondrocytes, it is essential to first specify this PS population to a paraxial mesoderm fate. Previous studies have shown that mesoderm populations that express cell surface markers often found on mesenchymal stem cells, CD73 and CD105, have chondrogenic potential (Hwang, Kim et al. 2006). The expression of these two cell surface markers, as well as the expression of transcription factors Meox1 and Nkx3.2 combined with the lack of expression of Nkx2.5 to monitor the emergence of a paraxial mesoderm population was used. Previous experiments in the mouse ESC model system have shown the importance of inhibiting the BMP signaling pathway in the context of FGF signaling to prevent the emergence of cardiac mesoderm and promote the development of paraxial mesoderm (Craft, Ahmed et al. 2013). […] Very few cells in untreated mesoderm conditions expressed CD73 and CD105 (7.46%, FIG. 2B). […] The changes in expression of these surface markers were accompanied by the upregulation of paraxial genes Meox1 and Nkx3.2 (FIG. 2C). […] Thus, in some cell lines, the efficiency of paraxial mesoderm specification may be improved in the presence of a Wnt pathway antagonist immediately following the PS mesoderm induction phase.

The mark [4] stands for this setting: IL1beta in presence of TGFbeta3.
The mark [5] stands for this setting: IL1β 10 ng/ml, week 10-12, absence of TGFb3.
Where [6] appears, read: IL1β 10 ng/ml, week 10-12, absence of TGFbeta3.

With TGFbeta1: TGFbeta agonist, in experiment [1], the CILP2 expression entry was “upregulated”, the COL2A1 expression entry was “upregulated” and the “PRG4 (lubricin) expression” value was “upregulated”.
As for IL1beta: pro-inflammatory cytokine, in experiment [2] (setting [4]), the CILP2 expression entry is “downregulated” and the “lubricin (PRG4) expression” value is “downregulated”. Moreover, the ADAMTS5 expression result in experiment [2] (IL1beta with TGFbeta3 present) is recorded as “induced”. Moreover, in experiment [2] (IL1β 10 ng/ml, week 10-12), the ACAN expression entry is given as “reduction”, the COL2A1 expression result is given as “reduction” and the “vascular endothelial growth factor (VEGF) expression” value is “increase”. For the same molecule, the “proteoglycans in the tissue (toluidine blue)” value in experiment [2] (IL1β 10 ng/ml, week 10-12, 12-week tissues) is on record as “noticeable loss”. Moreover, in experiment [2] (setting [5]), the ADAMTS4 expression entry was “upregulation”, the ADAMTS5 expression entry is “upregulation”, the MMP2 expression result is reported as “upregulation” and the MMP13 expression entry is given as “upregulation”. Also, in experiment [2] (setting [6]), the CILP2 expression entry is “downregulated” and the “lubricin (PRG4) expression” value is recorded as “downregulated”.
As to `Cc1ccc2nc(NC(=O)CSc3nc4c(c(=O)n3-c3ccccc3)SCC4)sc2c1` [IWP2, N-(6-Methyl-2-benzothiazolyl)-2-[(3,4,6,7-tetrahydro-4-oxo-3-phenylthieno[3,2-d]pyrimidin-2-yl)thio]-acetamide, reference compound], the “CD73 and CD105 expression with Wnt inhibition” value in experiment [3] was “improve the efficiency of CD73 and CD105 expression”.

B1: TGFbeta2: TGFbeta agonist (protein, UniProt P61812 303-414, looked up)
Transforming growth factor …: ALDAAYCFRNVQDNCCLRPLYIDFKRDLGWKWIHEPKGYNANFCAGACPYLWSSDTQHSRVLSLYNTINPEASASPCCVSQDLEPLTILYYIGKTPKIEQLSNMIVKSCKCS
For the molecule B1, in experiment [1], the CILP2 expression entry is listed as “upregulated”, the COL2A1 expression entry is on record as “upregulated” and the “PRG4 (lubricin) expression” value was “upregulated”.

B2: GDF5: growth and differentiation factor 5, BMP4 agonist (protein, UniProt P43026 382-501, looked up)
Growth/differentiation factor …: APLATRQGKRPSKNLKARCSRKALHVNFKDMGWDDWIIAPLEYEAFHCEGLCEFPLRSHLEPTNHAVIQTLMNSMDPESTPPTCCVPTRLSPISILFIDSANNVVYKQYEDMVVESCGCR
On to B2, for which, in experiment [1] (13 week old tissues, GDF5 instead of BMP4), the “tissue histology (toluidine blue), chondrocyte size” value is given as “generates hypertrophic chondrocytes”.
